The results in this text go back to patent US8227613B2, “Heteroaryl carboxamide derivatives” (Hoffmann-La Roche Inc., priority 2008, dated 2012).

The assay addresses T1, human chemokine receptor 2 isoform B (CCR2B) (Homo sapiens, UniProt P41597).
T1 construct: host or cells: CHO-K1 (CHOK1-CCR2B-A5)
T1 sequence (P41597 1-360 isoform P41597-2): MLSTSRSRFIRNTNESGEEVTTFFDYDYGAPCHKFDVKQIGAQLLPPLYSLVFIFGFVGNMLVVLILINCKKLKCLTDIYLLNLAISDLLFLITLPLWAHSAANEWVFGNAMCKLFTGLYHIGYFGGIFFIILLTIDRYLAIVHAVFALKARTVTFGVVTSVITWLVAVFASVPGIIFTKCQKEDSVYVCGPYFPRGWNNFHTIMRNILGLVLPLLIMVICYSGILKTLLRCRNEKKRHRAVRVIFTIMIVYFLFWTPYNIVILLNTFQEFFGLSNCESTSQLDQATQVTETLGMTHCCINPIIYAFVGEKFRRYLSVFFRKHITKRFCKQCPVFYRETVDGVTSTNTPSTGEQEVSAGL
In words: Calcium mobilization assay (FLIPR, MCP-1 stimulated CHOK1-CCR2B-A5 cells). The assay is classed as cell-based. The note with it: 20 nM MCP-1, antagonist activity, read-out: IC50 (inhibitor concentration required for 50% inhibition of specific calcium increases). As to the method: Calcium Mobilization Assay
CHOK1-CCR2B-A5 cells (from Euroscreen) stably overexpressing the human chemokine receptor 2 isoform B were cultured in Nutrient Hams F12 medium supplemented with 5% FBS, 100 U/ml penicillin, 100 μg/ml streptomycin, 400 μg/ml G418 and 5 μg/ml puromycin.
For the assay cells were grown overnight in 384-well black clear flat bottom polystyrene plates (Costar) at 37° C. at 5% CO2. After washing with DMEM, 20 mM Hepes, 2.5 mM probenecid, 0.1% BSA (DMEM assay buffer) cells were loaded with 4 μM Fluo-4 in the same DMEM assay buffer for 2 hours at 30° C. Excess dye was removed and cells were washed with DMEM assay buffer. 384-well compound plates were prepared with DMEM assay buffer/0.5% DMSO with or without various concentrations of test compounds. Usually compounds were tested for agonist and antagonist activity.
Test compounds were added to the assay plate and agonist activity was monitored as fluorescence for 80 seconds with a FLIPR (488 nm excitation; 510-570 nm emission; Molecular Devices). After 20-30 min. of incubation at 30° C., 20 nM MCP-1 (R&D; Roche) was added and fluorescence was monitored again for 80 seconds. Increases in intracellular calcium are reported as maximum fluorescence after agonist exposure minus basal fluorescence before exposure. Antagonist activity is indicated as inhibitor concentration required for 50% inhibition of specific calcium increases.
For orientation: Calcium assays in cells follow changes in intracellular calcium, usually with a dye or a luminescent sensor.
Regarding `Cc1cc(-c2cccc(C(F)(F)F)c2)c(C(=O)N2CCN(C(=O)OC(C)(C)C)CC2)nc1C(=O)N1CCC(N2CCCC2)CC1` [Example 59, 4-[5-Methyl-6-(4-pyrrolidin-1-yl-piperidine-1-carbonyl)-3-(3-trifluoromethyl-phenyl)-pyridine-2-carbonyl]-piperazine-1-carboxylic acid tert-butyl ester], the IC50 is 490 nM.

`Cc1cc(-c2cccc(C(F)(F)F)c2)c(C(=O)NC2CCNCC2)nc1C(=O)N1CCC(N2CCCC2)CC1` [Example 60, 5-Methyl-6-(4-pyrrolidin-1-yl-piperidine-1-carbonyl)-3-(3-trifluoromethyl-phenyl)-pyridine-2-carboxylic acid piperidin-4-ylamide]: the IC50 was determined as 290 nM.

`Cc1cc(-c2cccc(C(F)(F)F)c2)c(C(=O)N2CCNCC2)nc1C(=O)N1CCC(N2CCCC2)CC1` [Example 61, [5-Methyl-6-(4-pyrrolidin-1-yl-piperidine-1-carbonyl)-3-(3-trifluoromethyl-phenyl)-pyridin-2-yl]-piperazin-1-yl-methanone]: the IC50 came to 320 nM.

As for `Cc1cc(-c2cccc(C(F)(F)F)c2)c(Oc2cccnc2)nc1C(=O)N1CCC(N2CCCC2)CC1` [Example 62, [3-Methyl-6-(pyridin-3-yloxy)-5-(3-trifluoromethyl-phenyl)-pyridin-2-yl]-(4-pyrrolidin-1-yl-piperidin-1-yl)-methanone], the IC50 was found to be 69 nM.

Turning to `Cc1cc(-c2cccc(C(F)(F)F)c2)c(=O)n(C)c1C(=O)N1CCC(N2CCCC2)CC1` [Example 63, 1,5-Dimethyl-6-(4-pyrrolidin-1-yl-piperidine-1-carbonyl)-3-(3-trifluoromethyl-phenyl)-1H-pyridin-2-one], the IC50 was determined as 32 nM.

In the case of `Cc1cc(-c2cccc(C(F)(F)F)c2)c(S)nc1C(=O)N1CCC(N2CCCC2)CC1` [Example 64, [6-Mercapto-3-methyl-5-(3-trifluoromethyl-phenyl)-pyridin-2-yl]-(4-pyrrolidin-1-yl-piperidin-1-yl)-methanone; [3-Methyl-6-thioxo-5-(3-trifluoromethyl-phenyl)-1,6-dihydro-pyridin-2-yl]-(4-pyrrolidin-1-yl-piperidin-1-yl)-methanone (tautomers)], the IC50 was determined as 300 nM.

For the molecule `Cc1cc(-c2cccc(C(F)(F)F)c2)c2nnnn2c1C(=O)N1CCC(N2CCCC2)CC1` [Example 65, [6-Methyl-8-(3-trifluoromethyl-phenyl)-tetrazolo[1,5-a]pyridin-5-yl]-(4-pyrrolidin-1-yl-piperidin-1-yl)-methanone], the IC50 came out at 7.6 nM.

With `Cc1cc(-c2cccc(C(F)(F)F)c2)c(OCCO)nc1C(=O)N1CCC(N2CCCC2)CC1` [Example 66, [6-(2-Hydroxy-ethoxy)-3-methyl-5-(3-trifluoromethyl-phenyl)-pyridin-2-yl]-(4-pyrrolidin-1-yl-piperidin-1-yl)-methanone], the IC50 amounted to 200 nM.

As to `Cc1cc(-c2cc(C(F)(F)F)ccc2F)c[n+]([O-])c1C(=O)N1CCC(N2CCCC2)CC1` [Example 67, [5-(2-Fluoro-5-trifluoromethyl-phenyl)-3-methyl-1-oxy-pyridin-2-yl]-(4-pyrrolidin-1-yl-piperidin-1-yl)-methanone], the IC50 stood at 59 nM.
